Laboratory results: ChEMBL document CHEMBL1201862, “PubChem BioAssay data set” (2004)
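Five compound concentrations were applied to cells in 96-well plates for 48 hours; endpoints were derived by simple linear interpolation of the resulting dose-response curve. GI50 is the concentration that inhibits growth by half.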 The source made the active and inactive calls. Rule as the data show it: active = GI50 up to about 1.1 µM and inactive = higher.

Tests used:
Experiment in all cases: inhibition of tumour cell growth, NCI panel, 48 h
786-0 = test system: 786-0
A498 = test system: A498
A549 = test system: A549
EKVX = test system: EKVX
HOP-62 = test system: HOP-62
HT-29 = test system: HT-29
Hs-578T = test system: Hs-578T
IGROV-1 = test system: IGROV-1
M14 = test system: M14
MDA-N = test system: MDA-N
NCI-H23 = test system: NCI-H23
OVCAR-3 = test system: OVCAR-3
PC-3 = test system: PC-3
SF-539 = test system: SF-539
SK-MEL-2 = test system: SK-MEL-2
SNB-75 = test system: SNB-75
TK-10 = test system: TK-10
UACC-62 = test system: UACC-62
UO-31 = test system: UO-31

Row | SMILES | GI50 (786-0) | GI50 (A498) | GI50 (A549) | GI50 (EKVX) | GI50 (HOP-62) | GI50 (HT-29) | GI50 (Hs-578T) | GI50 (IGROV-1) | GI50 (M14) | GI50 (MDA-N) | GI50 (NCI-H23) | GI50 (OVCAR-3) | GI50 (PC-3) | GI50 (SF-539) | GI50 (SK-MEL-2) | GI50 (SNB-75) | GI50 (TK-10) | GI50 (UACC-62) | GI50 (UO-31)
1 | Cc1c2c(C(N)=O)nccc2c(C)c2c1c1ccccc1n2Cc1ccccc1 | 3.86 µM (inactive) | 21 µM (inactive) | 14.8 µM (inactive) | 43.6 µM (inactive) | 6.38 µM (inactive) | 18.8 µM (inactive) | 6.07 µM (inactive) | 16.2 µM (inactive) | 56.2 µM (inactive) | 29 µM (inactive) | 23.1 µM (inactive) | 3.97 µM (inactive) | 13 µM (inactive) | 19.1 µM (inactive) | 18.8 µM (inactive) | 5.33 µM (inactive) | 15.9 µM (inactive) | 60.4 µM (inactive) | 16.4 µM (inactive)
2 | O=c1c(C(c2cccnc2)c2c(O)oc3cc(O)ccc3c2=O)c(O)oc2cc(O)ccc12 | > 100 µM (inactive) | > 100 µM (inactive) | > 100 µM (inactive) | > 100 µM (inactive) | > 100 µM (inactive) | > 100 µM (inactive) | > 100 µM (inactive) | > 100 µM (inactive) | > 100 µM (inactive) | > 100 µM (inactive) | > 100 µM (inactive) | > 100 µM (inactive) | > 100 µM (inactive) | > 100 µM (inactive) | > 100 µM (inactive) | > 100 µM (inactive) | > 100 µM (inactive) | > 100 µM (inactive) | > 100 µM (inactive)
3 | C[C@@H]1CC[C@H]2[C@H](C)C(OC3O[C@@H]4O[C@@]5(C)CC[C@H]6[C@H](C)CC[C@@H]([C@@H]3C)[C@@]46O5)O[C@@H]3O[C@@]4(C)CC[C@@H]1[C@]32O4 (some centres undefined) | > 100 µM (inactive) | > 100 µM (inactive) | > 100 µM (inactive) | > 100 µM (inactive) | > 100 µM (inactive) | > 100 µM (inactive) | > 100 µM (inactive) | – | > 100 µM (inactive) | > 100 µM (inactive) | > 100 µM (inactive) | > 100 µM (inactive) | > 100 µM (inactive) | > 100 µM (inactive) | > 100 µM (inactive) | > 100 µM (inactive) | > 100 µM (inactive) | > 100 µM (inactive) | –
4 | Cc1ccc(S(=O)(=O)N/N=C2/CC[C@H](C(C)(C)C)C[C@@H]2C)cc1 | 17.1 µM (inactive) | 17.6 µM (inactive) | 16.4 µM (inactive) | 18 µM (inactive) | 13.8 µM (inactive) | 17.1 µM (inactive) | 18.2 µM (inactive) | 14.9 µM (inactive) | 13.7 µM (inactive) | 17.1 µM (inactive) | 17.1 µM (inactive) | 12.6 µM (inactive) | 18.3 µM (inactive) | 18.2 µM (inactive) | 17.1 µM (inactive) | 17.8 µM (inactive) | 16.4 µM (inactive) | 15.7 µM (inactive) | 13.7 µM (inactive)
5 | CC(=O)OC[C@H]1On2nnnc2[C@H](OC(C)=O)[C@@H](OC(C)=O)[C@@H]1OC(C)=O | > 100 µM (inactive) | > 100 µM (inactive) | > 100 µM (inactive) | > 100 µM (inactive) | > 100 µM (inactive) | > 100 µM (inactive) | > 100 µM (inactive) | > 100 µM (inactive) | – | > 100 µM (inactive) | > 100 µM (inactive) | > 100 µM (inactive) | > 100 µM (inactive) | > 100 µM (inactive) | > 100 µM (inactive) | > 100 µM (inactive) | 31 µM (inactive) | > 100 µM (inactive) | > 100 µM (inactive)
6 | CN(C)CCNC(=O)c1ccc(NCCCN(C)CCCNc2ccc(C(=O)NCCN(C)C)c3nc4ccc([N+](=O)[O-])cc4c(O)c23)c2c(O)c3cc([N+](=O)[O-])ccc3nc12 | < 0.0197 µM (active) | 0.116 µM (active) | < 0.01 µM (active) | 0.301 µM (active) | 0.154 µM (active) | < 0.0182 µM (active) | 0.0798 µM (active) | < 0.01 µM (active) | 0.5 µM (active) | 0.155 µM (active) | 0.126 µM (active) | 0.186 µM (active) | < 0.01 µM (active) | 0.0186 µM (active) | 0.0111 µM (active) | 0.14 µM (active) | 0.124 µM (active) | 0.0538 µM (active) | 0.154 µM (active)
7 | CC(O)(CCCCCl)c1nc2ccccc2s1 (centres undefined) | > 100 µM (inactive) | > 100 µM (inactive) | > 100 µM (inactive) | 52.4 µM (inactive) | > 100 µM (inactive) | 65.9 µM (inactive) | > 100 µM (inactive) | > 100 µM (inactive) | > 100 µM (inactive) | > 100 µM (inactive) | > 100 µM (inactive) | > 100 µM (inactive) | 34.9 µM (inactive) | > 100 µM (inactive) | > 100 µM (inactive) | > 100 µM (inactive) | > 100 µM (inactive) | > 100 µM (inactive) | 64.1 µM (inactive)
8 | C=C[C@]1(O[Si](C)(C)C)C[C@@]2(C(=O)OCC)C(O)C(=O)N3CCc4cc(OC)c(OC)cc4[C@]312 (some centres undefined) | > 100 µM (inactive) | 40.9 µM (inactive) | > 100 µM (inactive) | > 100 µM (inactive) | > 100 µM (inactive) | > 100 µM (inactive) | 31.3 µM (inactive) | > 100 µM (inactive) | > 100 µM (inactive) | > 100 µM (inactive) | > 100 µM (inactive) | > 100 µM (inactive) | 93.8 µM (inactive) | > 100 µM (inactive) | > 100 µM (inactive) | > 100 µM (inactive) | > 100 µM (inactive) | 21.4 µM (inactive) | > 100 µM (inactive)
9 | Cc1ccc([N+](=O)[O-])c2c(NCCCN(C)C)ccnc12 | 44.8 µM (inactive) | 61.4 µM (inactive) | > 92 µM (inactive) | > 49 µM (inactive) | > 90.4 µM (inactive) | 31 µM (inactive) | > 100 µM (inactive) | 30 µM (inactive) | > 59.2 µM (inactive) | 33.5 µM (inactive) | 28.2 µM (inactive) | 33.1 µM (inactive) | 33.6 µM (inactive) | 27.3 µM (inactive) | 36.6 µM (inactive) | 33.7 µM (inactive) | > 100 µM (inactive) | – | > 100 µM (inactive)
10 | COc1ccc(/C=C(\NC(=O)c2ccccc2)C(=O)NN(C)c2ccnc3cc(Cl)ccc23)cc1OC | 27.6 µM (inactive) | > 100 µM (inactive) | 33 µM (inactive) | 50.7 µM (inactive) | 41.3 µM (inactive) | 34.7 µM (inactive) | 52.8 µM (inactive) | 17.2 µM (inactive) | 22.6 µM (inactive) | 24.5 µM (inactive) | 24 µM (inactive) | 27.6 µM (inactive) | 27.4 µM (inactive) | 21.5 µM (inactive) | 21.3 µM (inactive) | 32.2 µM (inactive) | 36.7 µM (inactive) | – | 28.2 µM (inactive)
11 | COc1cc(/C=C/C(=N\NC(=S)NN)c2sc(NNC(C)=O)nc2C)ccc1O | > 100 µM (inactive) | > 100 µM (inactive) | > 100 µM (inactive) | > 100 µM (inactive) | > 100 µM (inactive) | > 100 µM (inactive) | > 100 µM (inactive) | > 100 µM (inactive) | > 100 µM (inactive) | > 100 µM (inactive) | > 100 µM (inactive) | > 100 µM (inactive) | > 100 µM (inactive) | > 100 µM (inactive) | > 100 µM (inactive) | > 100 µM (inactive) | > 100 µM (inactive) | > 100 µM (inactive) | > 100 µM (inactive)
12 | COc1ccc(NC2Oc3cc4c(cc3C(c3cc(OC)c(OC)c(OC)c3)C2C)OCO4)cc1 (centres undefined) | 0.544 µM (active) | 0.316 µM (active) | 0.685 µM (active) | 3.56 µM (inactive) | 0.294 µM (active) | 0.365 µM (active) | 0.398 µM (active) | 0.771 µM (active) | 0.294 µM (active) | 0.0811 µM (active) | 0.847 µM (active) | 0.255 µM (active) | 0.586 µM (active) | 0.222 µM (active) | 0.538 µM (active) | 0.301 µM (active) | 5.33 µM (inactive) | 0.597 µM (active) | 0.891 µM (active)
13 | COc1ccc(/C=c2/[nH]c(=O)/c(=C\c3ccc(OCc4ccccc4)cn3)[nH]c2=O)cc1 | 49.9 µM (inactive) | 33 µM (inactive) | 50.2 µM (inactive) | > 100 µM (inactive) | 43 µM (inactive) | 50.5 µM (inactive) | 57.5 µM (inactive) | – | 62.8 µM (inactive) | 19.8 µM (inactive) | > 100 µM (inactive) | > 100 µM (inactive) | > 100 µM (inactive) | 32.4 µM (inactive) | 51.8 µM (inactive) | 19.3 µM (inactive) | 71.9 µM (inactive) | > 100 µM (inactive) | 0.889 µM (active)
14 | Nc1nccc(NCC2(CO)CC(CCc3ccccc3)C2)n1 (centres undefined) | 14.6 µM (inactive) | 13.2 µM (inactive) | 13 µM (inactive) | 12.6 µM (inactive) | 18.2 µM (inactive) | 11 µM (inactive) | 19.8 µM (inactive) | 13.2 µM (inactive) | – | 14.9 µM (inactive) | 12.2 µM (inactive) | 12.3 µM (inactive) | 15.1 µM (inactive) | 15.8 µM (inactive) | 14.5 µM (inactive) | 19.9 µM (inactive) | 12.5 µM (inactive) | 12.6 µM (inactive) | 12.5 µM (inactive)
